Measurements: patent US6900193B1, “Structural modification of 19-norprogesterone I: 17-α-substituted-11-β-substituted-4-aryl and 21-substituted 19-norpregnadienedione as new antiprogestational agents” (The United States of America as represented by the …, priority 1996, dated 2005)
Entries after “also recorded” stand apart in the source; their conditions may differ.

Legend:
[1] = tested on: progesterone-induced endometrial proliferation; test: AntiClauberg test; format: in vivo, rabbit; set-up: key to ANTIPROGESTATIONAL Anti-Clauberg: relative oral potency vs. reference compound set to 100; details: for BIOLOGICAL ACTIVITY antiClauberg: Table 2; for BIOLOGICAL ACTIVITY antiClauberg / ANTIPROGESTATIONAL Anti-Clauberg: CDB-2914 = 100 (assigned); for antiClauberg / oral antiprogestational activity, in words: versus the standard 69B; for ANTIPROGESTATIONAL Anti-Clauberg: relative potency
Method: AntiClauberg Test (Clauberg, C., Zentr. Gynakol., 54:2757-2770 (1930)) Immature female rabbits of the New Zealand White breed (approx. 1 kg body weight) were maintained under standard laboratory conditions and received a subcutaneous injection of 5 μg estradiol in 10% ethanol/sesame oil daily for 6 consecutive days. Twenty-four hours after the last dose of estradiol (day 7) animals received progesterone by subcutaneous injection (0.8 mg/day) and the experimental compound in appropriate vehicle (usually 10% ethanol/sesame oil) orally or subcutaneously for five consecutive days. One group of rabbits received progesterone only. Twenty-four hours after the last dose all animals were sacrificed for removal of the uterus which was cleaned of all fat and connective tissue, weighed to the nearest 0.2 mg and placed in 10% neutral buffered formalin for subsequent histological processing. Five micron sections stained with hematoxylin and eosin (H&E) were evaluated microscopically for the degree of endometrial glandular proliferation according to the method of McPhail (McPhail, supra). The percent inhibition of endometrial proliferation at each dose level of the experimental compound was derived by comparison with the progesterone-stimulated animals alone.

[2] = molecular target: T1, progesterone receptor (estrogen-primed rabbit uterus) (Oryctolagus cuniculus, UniProt P06186); test: Relative binding affinity, progesterone receptor; details: for BINDING AFFINITY Progester: Table 2; for BINDING AFFINITY Progester / RELATIVE BINDING AFFINITY Progesterone: estrogen-primed rabbit uterus, progesterone = 100%; for binding affinities compared with the standard, compound 69B: progesterone receptor implied (rabbit or human isoform A not specified)
T1 construct: preparation of cytosols for the progesterone and glucocorticoid receptor assays; from tissue; host or cells: uterus of estradiol-primed immature female New Zealand White rabbits (cytosol)
T1 sequence (P06186 1-930): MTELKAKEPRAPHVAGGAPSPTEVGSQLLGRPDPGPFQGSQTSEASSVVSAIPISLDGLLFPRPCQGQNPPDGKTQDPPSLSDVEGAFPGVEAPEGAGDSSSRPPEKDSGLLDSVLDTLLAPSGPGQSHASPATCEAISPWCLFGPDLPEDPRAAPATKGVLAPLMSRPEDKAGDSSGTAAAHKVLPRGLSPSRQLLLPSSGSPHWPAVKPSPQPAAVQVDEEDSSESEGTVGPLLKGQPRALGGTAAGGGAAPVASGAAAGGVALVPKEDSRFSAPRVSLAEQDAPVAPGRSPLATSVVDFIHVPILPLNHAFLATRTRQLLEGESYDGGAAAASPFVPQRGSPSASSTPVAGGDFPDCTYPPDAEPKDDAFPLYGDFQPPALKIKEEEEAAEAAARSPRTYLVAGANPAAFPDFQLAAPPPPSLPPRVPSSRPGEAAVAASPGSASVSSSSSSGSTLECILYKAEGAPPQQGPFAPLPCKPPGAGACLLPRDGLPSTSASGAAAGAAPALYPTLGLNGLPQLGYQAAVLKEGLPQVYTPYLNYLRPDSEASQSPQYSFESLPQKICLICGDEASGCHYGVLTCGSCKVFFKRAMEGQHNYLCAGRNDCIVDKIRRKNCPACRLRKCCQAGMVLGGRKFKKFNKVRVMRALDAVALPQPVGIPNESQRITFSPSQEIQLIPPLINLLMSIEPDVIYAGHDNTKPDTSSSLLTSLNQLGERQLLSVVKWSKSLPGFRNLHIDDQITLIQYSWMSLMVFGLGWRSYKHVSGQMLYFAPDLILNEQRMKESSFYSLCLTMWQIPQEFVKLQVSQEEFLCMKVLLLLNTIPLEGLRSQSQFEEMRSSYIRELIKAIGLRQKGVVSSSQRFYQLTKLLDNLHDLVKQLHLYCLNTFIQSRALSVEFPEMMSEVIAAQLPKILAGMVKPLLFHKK
Method: (§1) Relative Binding Affinities for the Progesterone and Glucocorticoid Receptors
(§2) Uteri and thymus glands were obtained from estradiol-primed immature female rabbits of the New Zealand White strain for preparation of cytosols for the progesterone and glucocorticoid receptor assays, respectively. Tissues were excised and immediately placed in ice cold TEGDM buffer (10 mM Tris, pH 7.4; 1.5 mM EDTA; 10% glycerol vol/vol/; 1 mM dithiothreitol [DTT]; and 20 mM sodium molybdate). The tissues were dissected free of connective tissue and fat, weighed and minced finely. Minced tissues were homogenized in 3 volumes TEGDM/gm with four 10 second bursts of a VirTis Cyclone set at half maximum speed with a 30 second cooling period (in ice) between bursts. Homogenates were centrifuged at 109,663 g at 4° C. for 1 hour to yield the soluble cytosol fiction. Aliquots of cytosol were snap frozen and stored at −75° C.
(§3) All binding assays were carried out at 2-6° C. for 16-18 hours. The following radioactive ligands were used: [1,2-^3H(N)]-progesterone (50.0 Ci/mmole) for the progesterone receptor (PR). […] For the progesterone receptor RBA assays 0.02 ml uterine cytosol or TEDGM buffer, 0.05 ml of various concentrations of test compounds or progesterone, 0.13 ml TEGDM buffer and 0.05 ml [^3H]-progesterone were added to duplicate tubes. For the glucocorticoid receptor RBA assays 0.1 ml thymus cytosol or TEDGM buffer, 0.05 ml of various concentrations of test compounds or dexamethasone, 0.05 ml TEGDM buffer and 0.05 ml [3H]-dexamethasone were added to duplicate tubes. For the estrogen receptor RBA assays 0.05 ml uterine cytosol, 0.1 ml TEGDM buffer, 0.05 ml of various concentrations of test compounds or estradiol and 0.05 ml [^3H]-estradiol were added to duplicate tubes. The concentrations of the test compounds, progesterone, dexamethasone and estradiol ranged from 0.05 to 100 nM and the concentrations of the competitors ranged from 0.5 to 500 nM. Total binding was measured at radioligand concentrations of 3.5 nM and nonspecific binding was measured in the presence of a 200-fold excess of unlabeled progesterone (PR), dexamethasone (GR) or diethylstilbestrol (ER), respectively.
(§4) In all incubations bound and free ligand were separated using dextra-coated charcoal (DCC). A 0.1 ml aliquot of DCC (0.5% charcoal/0.05% Dextran T-70) was added to each tube. The tubes were vortexed and incubated on ice for 10 minutes. Five-tenths ml TEG buffer (without DTT or molybdate) was then added to all tubes to improve supernatant recovery following centrifugation. The charcoal was pelleted by centrifugation at 2,100 g for 15 minutes at 4° C. The supernatants containing the [^3H]-steroid receptor complexes were decanted into vials containing 4 ml Optifluor (Packard Instrument Co.), vortexed, equilibrated in a liquid scintillation counter for 30 minutes and then counted for 2 minutes. This provided the quantity of receptor bound [^3H]-steroid at each competitor concentration.

[3] = molecular target: T2, glucocorticoid receptor (estrogen-primed rabbit thymus) (Oryctolagus cuniculus, UniProt P59667); test: Relative binding affinity, glucocorticoid receptor; details: for BINDING AFFINITY Glucocortic: Table 2; for BINDING AFFINITY Glucocortic / RELATIVE BINDING AFFINITY Glucocorticoid: estrogen-primed rabbit thymus, dexamethasone = 100%
T2 construct: preparation of cytosols for the progesterone and glucocorticoid receptor assays; from tissue; host or cells: thymus of estradiol-primed immature female New Zealand White rabbits (cytosol)
T2 sequence (P59667 1-772): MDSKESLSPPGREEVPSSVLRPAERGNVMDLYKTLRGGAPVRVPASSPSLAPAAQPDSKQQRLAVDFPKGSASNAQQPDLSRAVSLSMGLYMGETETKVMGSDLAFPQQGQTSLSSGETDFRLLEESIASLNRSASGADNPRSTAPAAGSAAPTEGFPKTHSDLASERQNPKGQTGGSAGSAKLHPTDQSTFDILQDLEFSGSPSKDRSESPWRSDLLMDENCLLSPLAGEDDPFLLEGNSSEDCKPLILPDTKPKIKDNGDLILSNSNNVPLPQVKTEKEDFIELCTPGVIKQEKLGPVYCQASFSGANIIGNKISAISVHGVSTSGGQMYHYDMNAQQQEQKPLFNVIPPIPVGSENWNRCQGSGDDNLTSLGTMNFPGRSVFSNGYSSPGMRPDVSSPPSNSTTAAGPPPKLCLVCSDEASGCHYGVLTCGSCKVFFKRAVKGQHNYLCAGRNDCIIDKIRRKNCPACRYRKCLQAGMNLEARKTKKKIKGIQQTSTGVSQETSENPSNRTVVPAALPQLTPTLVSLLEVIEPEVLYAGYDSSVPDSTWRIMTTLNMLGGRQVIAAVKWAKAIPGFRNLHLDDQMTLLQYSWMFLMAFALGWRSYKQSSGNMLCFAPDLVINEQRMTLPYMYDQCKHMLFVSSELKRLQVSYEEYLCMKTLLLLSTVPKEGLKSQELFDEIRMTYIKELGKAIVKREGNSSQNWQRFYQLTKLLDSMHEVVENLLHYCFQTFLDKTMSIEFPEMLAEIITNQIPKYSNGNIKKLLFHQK
Method: as §1, §2, §3, §4

## COCC(=O)OCC(=O)[C@@]1(OC(C)=O)CC[C@H]2[C@@H]3CCC4=CC(=O)CCC4=C3[C@@H](c3ccc(N(C)C)cc3)C[C@@]21C [Compound 126b]
[1]; oral
  BIOLOGICAL ACTIVITY antiClauberg: 125
  antiClauberg / oral antiprogestational activity, in words: greater activity than the standard
[2]
  BINDING AFFINITY Progester: 76%
[3]
  BINDING AFFINITY Glucocortic: 15%

## CC(=O)O[C@]1(C(=O)COC(=O)CN(C)C)CC[C@H]2[C@@H]3CCC4=CC(=O)CCC4=C3[C@@H](c3ccc(N(C)C)cc3)C[C@@]21C [Compound 133, 17α-Acetoxy-1-[4-(N,N-dimethylamino)phenyl]-21-(2′-N,N-dimethylamino)acetoxy-19-norpregna-4,9-diene-3,20-dione]
[1]; oral
  BIOLOGICAL ACTIVITY antiClauberg: 95
[2]
  BINDING AFFINITY Progester: 82%
[3]
  BINDING AFFINITY Glucocortic: 13%

## CC(=O)O[C@]1(C(C)=O)CC[C@H]2[C@@H]3CCC4=CC(=O)CCC4=C3[C@@H](c3ccc(N4CCOCC4)cc3)C[C@@]21C [Compound 72, 17α-Acetoxy-11β-[4-(N-Morpholino)phenyl]-19-norpregna-4,9-diene-3,20-dione]
[1]; oral
  BIOLOGICAL ACTIVITY antiClauberg: 35
[2]
  BINDING AFFINITY Progester: 109%
  binding affinities compared with the standard, compound 69B: binding affinities greater than that observed for the standard
[3]
  BINDING AFFINITY Glucocortic: 110%

## COCC(=O)C1(OC)CCC2C3CCC4=CC(=O)CCC4=C3C(c3ccc(N4CCCCC4)cc3)CC21C (stereo not drawn) [Compound 113c, 17α,21-Dimethoxy-11β-[4-(N-piperidino)phenyl]-19-norpregna-4,9-diene-3,20-dione]
[1]; oral
  BIOLOGICAL ACTIVITY antiClauberg: 70
[2]
  BINDING AFFINITY Progester: 63%
[3]
  BINDING AFFINITY Glucocortic: 45%

## COCC(=O)C1(OC(C)=O)CCC2C3CCC4=CC(=O)CCC4=C3C(c3ccc(C(C)=O)cc3)CC21C (stereo not drawn) [Compound 123b, 17α-Acetoxy-11β-(4-acetylphenyl)-21-methoxy-19-norpregna-4,9-diene-3,20-dione]
[1]; oral
  BIOLOGICAL ACTIVITY antiClauberg: 77
[2]
  BINDING AFFINITY Progester: 64%
[3]
  BINDING AFFINITY Glucocortic: 45%

## COC1(C(C)=O)CCC2C3CCC4=CC(=O)CCC4=C3C(c3ccc(N4CCCCC4)cc3)CC21C (stereo not drawn) [Compound 97b, 17α-Methoxy-1-[4-(piperidino)phenyl]-19-norpregna-4,9-diene-3,20-dione]
[1]; oral
  BIOLOGICAL ACTIVITY antiClauberg: 99
[2]
  BINDING AFFINITY Progester: 47%
[3]
  BINDING AFFINITY Glucocortic: 38%

## CC(=O)O[C@]1(C(=O)COC(=O)CCC2CCCC2)CC[C@H]2[C@@H]3CCC4=CC(=O)CCC4=C3[C@@H](c3ccc(N(C)C)cc3)C[C@@]21C [Compound 40, 17α-acetoxy-21-(3′-cyclopentylpropionyloxy)-11β-[4-(N,N-dimethylamino)phenyl]-19-norpregnadiene-3,20 dione]
[1]; oral
  ANTIPROGESTATIONAL Anti-Clauberg: 155
  antiClauberg / oral antiprogestational activity, in words: greater activity than the standard
[1]; versus CDB-2914
  more potent in the antiClauberg test than the lead compound: about 50%
[2]
  RELATIVE BINDING AFFINITY Progesterone: 74%
[3]
  RELATIVE BINDING AFFINITY Glucocorticoid: 37%

## COC(=O)OCC(=O)C1(OC(C)=O)CCC2C3CCC4=CC(=O)CCC4=C3C(c3ccc(N(C)C)cc3)CC21C (stereo not drawn) [Compound 126c, 17α-Acetoxy-21-hydroxy-11β-[4-(N,N-dimethylamino)phenyl]-19-norpregna-4,9-diene-3,20-dione-21-methyl carbonate]
[1]; oral
  BIOLOGICAL ACTIVITY antiClauberg: 224
  antiClauberg / oral antiprogestational activity, in words: greater activity than the standard
[2]
  BINDING AFFINITY Progester: 68%
[3]
  BINDING AFFINITY Glucocortic: 67%

## COCC(=O)[C@@]1(OC(C)=O)CC[C@H]2[C@@H]3CCC4=CC(=O)CCC4=C3[C@@H](c3ccc(N(C)C)cc3)C[C@@]21C [Compound 38, 17α-acetoxy-21-methoxy-11β-(4-N,N-dimethylaminophenyl)-19-norpregna-4,9-diene-3,20-dione]
[1]; oral
  ANTIPROGESTATIONAL Anti-Clauberg: 361
  antiClauberg / oral antiprogestational activity, in words: greater activity than the standard
[1]; oral, versus CDB-2914
  antiprogestational potency compared to the lead compound (CDB-2914), oral antiClauberg test: 3.61 times
[2]
  RELATIVE BINDING AFFINITY Progesterone: 103%
  binding affinities compared with the standard, compound 69B: binding affinities greater than that observed for the standard
[3]
  RELATIVE BINDING AFFINITY Glucocorticoid: 52%
[3]; rabbit thymus, versus CDB-2914 (69B) where stated
  binding affinity for the glucocorticoid receptor, in words: substantial reduction in glucocorticoid binding affinity; also recorded: low binding affinity
